Measured values as given in EP0200565A2, “Method for production of peroxidase” (NISSIN FOOD PRODUCTS CO., LTD., priority 1985, dated 1986).
Read-outs that look alike come from different tables or passages of the source.

System: peroxidase
Experiment: Activity of the isolated peroxidase towards various hydrogen donors
Assay type: biochemical, Coprinus cinereus IFO 30116
Method: Its action is shown by the followina reaction formula: [drawing 2] where AH2 is a hydrogen donor, and A is the oxidized hydrogen donor.
The enzyme was assayed for activity with respect to a variety of hydrogen donors.
Values snown in Taoie 2 are relative ones with that of phenol set at 100%.

[1] = relative values with that of phenol set at 100%, peroxidase of Coprinus cinereus IFO 30116

Row | Compound | Strength of Action [1] | Strength of Action [%]
1 | Oc1ccccc1O [Catechol] | 460% | 
2 | COc1cc(-c2ccc(N)c(OC)c2)ccc1N [o-dianisidine] | 5400% | 
3 | Cc1cc(-c2ccc(N)c(C)c2)ccc1N [o-tolidine] |  | 5400
4 | Oc1cccc2ccccc12 [α-naphthol] | 1200% | 
5 | COc1ccccc1O [Guaiacol] | 200% | 
6 | Oc1ccccc1 [Phenol] | 100 (%) | 
7 | Oc1ccc(O)cc1 [Hydroquinone] | 57% | 
8 | Oc1cccc(O)c1 [Resorcinol] | 0% | 
9 | δ-hydroquinon | 57% | 
